# Earlier results as cited in patent publication US20030166007A1, “Chemical proteomics” (MDS Proteomics Inc., priority 2002, published 2003).
# Tests used:
# [1] = target: T1, muscle glycogen phosphorylase b (Homo sapiens, UniProt P11217); conditions: cited from earlier work
# T1 sequence (P11217 1-842): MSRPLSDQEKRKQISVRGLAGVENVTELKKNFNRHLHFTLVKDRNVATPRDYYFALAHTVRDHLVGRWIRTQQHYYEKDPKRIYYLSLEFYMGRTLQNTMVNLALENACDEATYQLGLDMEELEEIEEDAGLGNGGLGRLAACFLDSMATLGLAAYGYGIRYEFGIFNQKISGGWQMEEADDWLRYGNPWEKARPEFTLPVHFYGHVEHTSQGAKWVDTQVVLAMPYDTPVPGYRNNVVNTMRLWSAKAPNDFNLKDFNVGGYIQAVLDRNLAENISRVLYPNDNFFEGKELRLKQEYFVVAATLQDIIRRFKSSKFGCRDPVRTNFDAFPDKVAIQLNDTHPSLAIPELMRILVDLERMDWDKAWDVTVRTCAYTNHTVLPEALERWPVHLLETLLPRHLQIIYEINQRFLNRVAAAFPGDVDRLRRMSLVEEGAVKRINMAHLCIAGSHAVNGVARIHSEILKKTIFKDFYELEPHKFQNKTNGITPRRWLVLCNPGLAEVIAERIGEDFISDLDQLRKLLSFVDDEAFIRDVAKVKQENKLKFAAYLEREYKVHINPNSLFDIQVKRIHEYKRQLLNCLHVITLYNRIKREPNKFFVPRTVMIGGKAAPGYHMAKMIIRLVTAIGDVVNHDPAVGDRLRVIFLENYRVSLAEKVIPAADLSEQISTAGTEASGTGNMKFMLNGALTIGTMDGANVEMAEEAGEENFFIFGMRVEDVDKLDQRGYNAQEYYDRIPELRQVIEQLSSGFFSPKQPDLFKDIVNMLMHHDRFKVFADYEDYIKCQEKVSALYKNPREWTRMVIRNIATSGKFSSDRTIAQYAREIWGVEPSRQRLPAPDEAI
# [2] = target: Amido phosphoribosyltransferase (Homo sapiens, UniProt Q06203); conditions: in vitro assays; cited from earlier work
# Amido phosphoribosyltransferase, sequence (Q06203 12-517, species assumed): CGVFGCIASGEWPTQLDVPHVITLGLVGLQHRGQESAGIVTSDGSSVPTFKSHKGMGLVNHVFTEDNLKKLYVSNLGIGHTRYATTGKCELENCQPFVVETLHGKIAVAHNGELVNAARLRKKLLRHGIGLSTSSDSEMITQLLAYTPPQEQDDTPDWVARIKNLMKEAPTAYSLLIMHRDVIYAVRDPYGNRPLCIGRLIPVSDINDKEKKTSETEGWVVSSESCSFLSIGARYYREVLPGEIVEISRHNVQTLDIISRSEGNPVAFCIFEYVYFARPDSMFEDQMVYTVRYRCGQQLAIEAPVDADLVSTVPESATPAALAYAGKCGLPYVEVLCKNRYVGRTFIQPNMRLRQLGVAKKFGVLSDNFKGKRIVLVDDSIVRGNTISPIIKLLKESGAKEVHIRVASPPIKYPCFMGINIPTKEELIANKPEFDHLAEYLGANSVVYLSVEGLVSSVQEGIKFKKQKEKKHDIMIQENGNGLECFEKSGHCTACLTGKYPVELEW
structure (smiles),measurement,setting,value
"CN(Cc1cnc2nc(N)nc(N)c2n1)c1c(Cl)cc(C(=O)N[C@@H](CCC(=O)O)C(=O)O)cc1Cl [3′,5′-dichloroMethotrexate]",inhibition of muscle glycogen phosphorylase b,[1],reversible inhibitors
CN(Cc1cnc2nc(N)nc(N)c2n1)c1ccc(C(=O)NC(CCC(=O)O)C(=O)O)cc1Cl (stereo not drawn) [3′-chloroMethotrexate],inhibition of muscle glycogen phosphorylase b,[1],reversible inhibitors
CN(Cc1cnc2nc(N)nc(N)c2n1)c1ccc(C(=O)N[C@@H](CCC(=O)N[C@@H](CCC(=O)N[C@@H](CCC(=O)N[C@@H](CCC(=O)N[C@@H](CCC(=O)O)C(=O)O)C(=O)O)C(=O)O)C(=O)O)C(=O)O)cc1 [MTX-Glu5],inhibition of amido-phosphoribosyltransferase,[2],inhibited
